Earlier results, collected in US20120087963A1, “DISINFECTANT COMPOSITION COMPRISING A BIGUANIDE COMPOUND” (BIO TECHNICS LIMITED, priority 2009, published 2012).

Test system: bacteria
Conditions: typical, of the order of

polyaminopropyl biguanide [PAPB]
Bactericidal concentration: ~10 mg/L
